What was measured:
Homo sapiens [1] = species: Homo sapiens; experiment: Compound was tested for inhibition of ADP induced platelet aggregation by using human platelet rich plasma (PRP) assay; type: functional
Homo sapiens [2] = species: Homo sapiens; experiment: Compound was tested for inhibition of ADP induced platelet aggregation by using human platelet rich plasma(PRP) assay; type: functional

| IC50 (Homo sapiens [1]) | IC50 (Homo sapiens [2]) | SMILES |
| --- | --- | --- |
| 200 nM |  | CCCCOC(=O)N[C@@H](CNC(=O)c1cc(OCC2CCN(C(=N)N)CC2)no1)C(=O)OC |
|  | 60 nM | CCCCOC(=O)N[C@@H](CNC(=O)c1cc(OCc2ccc(C(=N)N)cc2)no1)C(=O)O |
|  | 50 nM | CCCCOC(=O)N[C@@H](CNC(=O)c1cc(OCc2ccc(C(=N)N)cc2)no1)C(=O)OC |
|  | 32 nM | CCCCOC(=O)N[C@@H](CNC(=O)c1cccc(COc2ccc(C(=N)N)cc2)c1)C(=O)OC |

— ChEMBL document CHEMBL1130705, “Synthesis and antiplatelet effects of an isoxazole series of glycoprotein IIb/IIIa antagonists” (Bioorg Med Chem Lett, 1998)
